Assay results as given in PubChem BioAssay (NCI).
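Step 1: Grow cells in 96-well plates. Step 2: Expose to compound for 48 hours at 5 concentrations. Step 3: Interpolate endpoints linearly; if unreached, use highest concentration. GI50 marks 50% less growth. Definition used: TGI = concentration required for complete inhibition of growth.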

Assays:
Assay in all cases: NCI anticancer screen, dose series, 48 h
HCT-116 colon = system: HCT-116 colon
PC-3 prostate = system: PC-3 prostate
SK-MEL-28 melanoma = system: SK-MEL-28 melanoma
CAKI-1 renal = system: CAKI-1 renal
UO-31 renal = system: UO-31 renal
MDA-MB-231 breast = system: MDA-MB-231 breast
OVCAR-3 ovarian = system: OVCAR-3 ovarian
SW-620 colon = system: SW-620 colon
MCF7 breast = system: MCF7 breast
NCI-H522 lung = system: NCI-H522 lung

SMILES | GI50 (HCT-116 colon) [µM] | TGI (HCT-116 colon) [µM] | GI50 (PC-3 prostate) [µM] | TGI (PC-3 prostate) [µM] | GI50 (SK-MEL-28 melanoma) [µM] | TGI (SK-MEL-28 melanoma) [µM] | GI50 (CAKI-1 renal) [µM] | TGI (CAKI-1 renal) [µM] | GI50 (UO-31 renal) [µM] | TGI (UO-31 renal) [µM] | GI50 (MDA-MB-231 breast) [µM] | TGI (MDA-MB-231 breast) [µM] | GI50 (OVCAR-3 ovarian) [µM] | TGI (OVCAR-3 ovarian) [µM] | GI50 (SW-620 colon) [µM] | TGI (SW-620 colon) [µM] | GI50 (MCF7 breast) [µM] | TGI (MCF7 breast) [µM] | GI50 (NCI-H522 lung) [µM] | TGI (NCI-H522 lung) [µM]
COc1cc(/C=C/C(=O)c2c(C)nc3ccccc3c2C)ccc1OCCCN1CCN(C(=O)c2ccco2)CC1 | 3.5 | 15.7 | 6.44 | 26.7 | 12.7 | 25.3 | 1.86 | 9.03 | 4 | 19.6 | 7.22 | 29.9 | 9.46 | 21.3 | 6.03 | 19.2 | 3.8 | 15.8 | 5.06 | 23.9
COCCn1cc(-c2csc(-c3c[nH]c4ccc(Br)cc34)n2)c2cccnc21 | 3.84 | > 100 | 3.68 | > 100 | 4.79 | > 100 | 5.21 | > 100 | 3.1 | > 100 | 2.65 | > 100 | 3.9 | > 100 | 3.3 | > 100 | 1.79 | > 100 | 2.17 | 6.93
O=C(O)Cc1cccc2c(=O)c3cccc([N+](=O)[O-])c3oc12 | – | > 100 | – | > 100 | – | > 100 | – | > 100 | – | > 100 | – | > 100 | – | > 100 | – | > 100 | – | > 100 | – | > 100
COc1cc2c(cc1C)NC(=O)/C2=C\c1c[nH]c2ccccc12 | 21.1 | 90.1 | 12.2 | 31.5 | 21.7 | 69.5 | 10.6 | 32.3 | 10.4 | 62.9 | 4.3 | 21.5 | 15.4 | 62.9 | 20.3 | 53.3 | 12.4 | 49.7 | 12.2 | 28.9
CN(C)c1ccc2nc(CC(O)(C(F)(F)F)C(F)(F)F)ccc2c1 | – | > 10 | – | > 10 | – | > 10 | – | > 10 | – | > 10 | – | > 10 | – | > 10 | – | > 10 | – | > 10 | – | > 10
O=C(O[C@H]1CCN2C[C@H]3C[C@H](CN4C(=O)CCC[C@H]34)[C@@H]2C1)c1ccc(O)cc1 | – | > 100 | – | > 100 | – | > 100 | – | > 100 | – | > 100 | – | > 100 | – | > 100 | – | > 100 | – | > 100 | – | > 100
O=[N+]([O-])c1cc2c([N+](=O)[O-])cccc2o1 | – | > 100 | – | 36.1 | – | 16.8 | – | 5.77 | – | 3.98 | – | 27.6 | – | 21.8 | – | 7.99 | – | 13.8 | – | 1.92
Cc1ccc(S(=O)(=O)N2CCc3ccc(O)c4c3C2Cc2ccc3c(c2-4)OCO3)cc1 (stereo not given) | 0.451 | 10.6 | 0.808 | 19.5 | 0.668 | 18.6 | 0.737 | 22.6 | 0.904 | 11.8 | 1.47 | 9.48 | 0.286 | 0.707 | 0.429 | > 42.9 | 0.317 | 10.2 | 0.393 | 2.08
C/C(=N/N=C(N)N)c1ccc(NC(=O)Nc2ccc(/C(C)=N/N=C(N)N)cc2)cc1 | 28 | > 100 | 14.4 | 46.9 | 15 | 39.9 | 22.4 | > 100 | 40.8 | > 100 | 20 | 71.2 | 18.6 | > 61.6 | 48.8 | > 100 | 4.48 | 31.2 | 7.14 | 28.8
Nc1ccc(Sc2c3ccccc3nc3ccccc23)cc1 | – | 26.1 | – | 25.7 | – | 24.8 | – | 39 | – | 34.3 | – | 28.1 | – | 29.2 | – | 39 | – | 28.8 | – | 16
CSc1ccc(C(=O)/C=C/c2ccccc2Cl)cc1 | 2.08 | 3.96 | 16.5 | 32.4 | 23.4 | 52.9 | 15.4 | 30.7 | 2.31 | 5.05 | 13.3 | 31.2 | 8.98 | 21.9 | 4.95 | 28.7 | 32.2 | > 100 | 10.9 | 33.1
C/C(=N/Nc1nc(C)cc(=O)[nH]1)C(=O)O | – | > 100 | – | > 100 | – | > 100 | – | > 100 | – | > 100 | – | > 100 | – | > 100 | – | > 100 | – | > 100 | – | > 100
FC(F)(F)c1cc(Nc2ccc3cc(OCCCN4CCOCC4)ccc3n2)ccc1Cl | 1.65 | 3.14 | 1.09 | 2.68 | 1.59 | 3.39 | 1.66 | 3.44 | 1.55 | 3.27 | 1.83 | 4.2 | 1.93 | 4.47 | 1.85 | 3.6 | 1.51 | 3.56 | 2.04 | 3.82
CC1=C([Se]CC(OC(=O)[C@@H](CO)NC(=O)OC(C)(C)C)C(=O)NCCCCCC(=O)OCc2ccccc2)C(=O)c2ccccc2C1=O (stereo not given in full) | 1.39 | 2.73 | 1.23 | 2.58 | 1.79 | 3.21 | 1.8 | 3.32 | 1.54 | 3.03 | 1.68 | 3.19 | 1.79 | 3.19 | 1.72 | 3.25 | 1.61 | 3.36 | 2.02 | 3.5
CCC[CH2][Pb]([Cl])([CH2]CCC)[CH2]CCC | 0.0176 | 0.0345 | 0.0355 | 0.119 | 0.0276 | 0.0792 | 0.0673 | 0.199 | 0.031 | 0.0809 | 0.0328 | 0.122 | 0.0204 | 0.0499 | 0.0185 | 0.0345 | 0.0161 | 0.0361 | 0.0321 | 0.104
COC1=CC(=O)c2nc(Cl)ccc2C1=O | 1.75 | 3.24 | 3.73 | 16.5 | 1.88 | 3.47 | 1.91 | 3.74 | 1.63 | 3.12 | 1.84 | 6.44 | 1.79 | 3.19 | 1.79 | 3.3 | 1.91 | 4.19 | 1.7 | 3.57
CC1(C)N=C(N)N=C(N)N1c1cccc(Br)c1 | 0.069 | > 100 | 0.212 | > 100 | 14 | > 100 | 41.9 | > 100 | 6.69 | > 100 | > 100 | > 100 | 6.56 | > 100 | 0.216 | > 100 | 0.665 | > 100 | 4.29 | > 100
Nc1ncnc2c1ccn2[C@@H]1O[C@H]([C@H](O)c2ccc(Cl)c(F)c2)[C@@H](O)[C@H]1O | > 100 | > 100 | > 100 | > 100 | > 100 | > 100 | > 100 | > 100 | 45.3 | > 100 | > 100 | > 100 | > 100 | > 100 | > 100 | > 100 | 50.2 | > 100 | > 100 | > 100
